Converted amounts (≈) assume the structure as drawn.
What was measured:
Staphylococcus aureus [1] = assay: Antibacterial activity against methicillin-resistant Staphylococcus aureus LMG 15975 after 16 to 24 hrs by broth microdilution method; type: functional
[2] = Cytotoxicity against human HepG2 cells after 48 hrs by XTT assay; type: cell-based
Acinetobacter baumannii = assay: Antibacterial activity against Acinetobacter baumannii LMG1041 after 16 to 24 hrs by broth microdilution method; type: functional
Streptococcus pyogenes [3] = assay: Antibacterial activity against macrolide-resistant Streptococcus pyogenes 2 Finland by dilution susceptibility test; type: functional
Streptococcus pneumoniae [4] = assay: Antibacterial activity against macrolide-sensitive Streptococcus pneumoniae SP030 by dilution susceptibility test; type: functional
Staphylococcus aureus [5] = assay: Antibacterial activity against Staphylococcus aureus ATCC 29213 after 16 to 24 hrs by broth microdilution method; type: functional
Enterococcus faecalis [6] = assay: Antibacterial activity against vancomycin-resistant Enterococcus faecalis 12 by dilution susceptibility test; type: functional
Streptococcus pneumoniae [7] = assay: Antibacterial activity against Streptococcus pneumoniae ATCC 49619 by dilution susceptibility test; type: functional
Staphylococcus aureus [8] = assay: Antibacterial activity against macrolide-resistant Staphylococcus aureus PK2 after 16 to 24 hrs by broth microdilution method; type: functional
Staphylococcus aureus [9] = assay: Antibacterial activity against mupirocin-resistant Staphylococcus aureus V86 after 16 to 24 hrs by broth microdilution method; type: functional
Enterococcus faecium = assay: Antibacterial activity against vancomycin-resistant Enterococcus faecium 7 by dilution susceptibility test; type: functional
[10] = system: Staphylococcus epidermidis; assay: Antibacterial activity against methicillin-susceptible Staphylococcus epidermidis RO7 by dilution susceptibility test; type: functional
Staphylococcus aureus [11] = assay: Antibacterial activity against mupirocin-resistant Staphylococcus aureus V321 after 16 to 24 hrs by broth microdilution method; type: functional
Staphylococcus aureus [12] = assay: Antibacterial activity against Staphylococcus aureus LMG 10147 after 16 to 24 hrs by broth microdilution method; type: functional
Streptococcus pneumoniae [13] = assay: Antibacterial activity against quinolone-sensitive Streptococcus pneumoniae 19A-TN by dilution susceptibility test; type: functional
Streptococcus pneumoniae [14] = assay: Antibacterial activity against macrolide-resistant Streptococcus pneumoniae 158bg by dilution susceptibility test; type: functional
[15] = Cytotoxicity against human MT4 cells after 48 hrs by XTT assay; type: cell-based
[16] = Cytotoxicity against human HuH7 cells after 48 hrs by XTT assay; type: cell-based, Huh-7
[17] = system: Staphylococcus epidermidis; assay: Antibacterial activity against methicillin-resistant Staphylococcus epidermidis TA12 by dilution susceptibility test; type: functional
Escherichia coli = assay: Antibacterial activity against Escherichia coli LMG15862 by dilution susceptibility test; type: functional
Bacillus cereus = assay: Antibacterial activity against Bacillus cereus CCUG 7414 by dilution susceptibility test; type: functional
Streptococcus pneumoniae [18] = assay: Antibacterial activity against tetracycline-resistant Streptococcus pneumoniae TE 122-026 by dilution susceptibility test; type: functional
Staphylococcus aureus [19] = assay: Antibacterial activity against methicillin-resistant Staphylococcus aureus 4384 after 16 to 24 hrs by broth microdilution method; type: functional
Klebsiella pneumoniae = assay: Antibacterial activity against Klebsiella pneumoniae LMG20218 by dilution susceptibility test; type: functional
Streptococcus pneumoniae [20] = assay: Antibacterial activity against quinolone-resistant Streptococcus pneumoniae TE 122-024 by dilution susceptibility test; type: functional
Staphylococcus aureus [21] = assay: Antibacterial activity against Staphylococcus aureus CCUG 1800 after 16 to 24 hrs by broth microdilution method; type: functional
Streptococcus pyogenes [22] = assay: Antibacterial activity against macrolide-resistant Streptococcus pyogenes 21 Finland by dilution susceptibility test; type: functional
Streptococcus pneumoniae [23] = assay: Antibacterial activity against macrolide-resistant Streptococcus pneumoniae 956 by dilution susceptibility test; type: functional
Staphylococcus aureus [24] = assay: Antibacterial activity against macrolide-resistant Staphylococcus aureus 6 Holland after 16 to 24 hrs by broth microdilution method; type: functional
Staphylococcus aureus [25] = assay: Antibacterial activity against mupirocin-resistant Staphylococcus aureus V55 after 16 to 24 hrs by broth microdilution method; type: functional
Staphylococcus aureus [26] = assay: Antibacterial activity against methicillin-resistant Staphylococcus aureus MO17 after 16 to 24 hrs by broth microdilution method; type: functional
Staphylococcus aureus [27] = assay: Antibacterial activity against macrolide-resistant Staphylococcus aureus 853E after 16 to 24 hrs by broth microdilution method; type: functional
Staphylococcus aureus [28] = assay: Antibacterial activity against mupirocin-resistant Staphylococcus aureus V308 after 16 to 24 hrs by broth microdilution method; type: functional
Staphylococcus aureus [29] = assay: Antibacterial activity against macrolide-resistant Staphylococcus aureus 56 Japan after 16 to 24 hrs by broth microdilution method; type: functional
Enterococcus faecalis [30] = assay: Antibacterial activity against vancomycin-sensitive Enterococcus faecalis 24 by dilution susceptibility test; type: functional
Streptococcus pyogenes [31] = assay: Antibacterial activity against macrolide-sensitive Streptococcus pyogenes 29A-TF by dilution susceptibility test; type: functional
Pseudomonas aeruginosa = assay: Antibacterial activity against Pseudomonas aeruginosa LMG6395 by dilution susceptibility test; type: functional
Streptococcus pneumoniae [32] = assay: Antibacterial activity against macrolide-resistant Streptococcus pneumoniae BAA1407 by dilution susceptibility test; type: functional
Staphylococcus aureus [33] = assay: Antibacterial activity against quinolone-resistant Staphylococcus aureus FR 131 after 16 to 24 hrs by broth microdilution method; type: functional
[34] = system: Mycolicibacterium frederiksbergense; assay: Antibacterial activity against Mycobacterium frederiksbergense by dilution susceptibility test; type: functional
Staphylococcus aureus [35] = assay: Antibacterial activity against methicillin-resistant Staphylococcus aureus PICI after 16 to 24 hrs by broth microdilution method; type: functional
Staphylococcus aureus [36] = assay: Antibacterial activity against tetracycline-resistant Staphylococcus aureus 4216 after 16 to 24 hrs by broth microdilution method; type: functional

Compound: CCCCCCCCC[C@@H]1CC(O)=C(C(C)=O)C(=O)O1
- MIC (Staphylococcus aureus [1]): 1.5 to 2.5 µg/mL (≈ 5.31 to 8.85 µM)
- CC50 at 48 h [2]: 71 µg/mL (≈ 251 µM)
- MIC (Acinetobacter baumannii): > 64 µg/mL

Compound: CCCCCCCCC[C@@H]1CC(O)=C(C(=O)CCCC)C(=O)O1
- MIC (Staphylococcus aureus [1]): < 0.6 µg/mL
- CC50 at 48 h [2]: 36 µg/mL (≈ 111 µM)
- MIC (Acinetobacter baumannii): 8 to 16 µg/mL (≈ 24.7 to 49.3 µM)

Compound: CCCCCCCCC[C@@H]1CC(O)=C(C(=O)CCC)C(=O)O1
- MIC (Streptococcus pyogenes [3]): 8 µg/mL (≈ 25.8 µM)
- MIC (Streptococcus pneumoniae [4]): 8 µg/mL (≈ 25.8 µM)
- MIC (Staphylococcus aureus [5]): 4 µg/mL (≈ 12.9 µM)
- MIC (Enterococcus faecalis [6]): 2 µg/mL (≈ 6.44 µM)
- MIC (Streptococcus pneumoniae [7]): 4 µg/mL (≈ 12.9 µM)
- MIC (Staphylococcus aureus [8]): 2 µg/mL (≈ 6.44 µM)
- MIC (Staphylococcus aureus [9]): 0.1 to 0.25 µg/mL (≈ 0.322 to 0.805 µM)
- MIC (Enterococcus faecium): 2 µg/mL (≈ 6.44 µM)
- MIC (Staphylococcus aureus [1]): 0.8 µg/mL (≈ 2.58 µM)
- MIC [10]: 1 µg/mL (≈ 3.22 µM)
- MIC (Staphylococcus aureus [11]): 0.1 to 0.25 µg/mL (≈ 0.322 to 0.805 µM)
- MIC (Staphylococcus aureus [12]): 0.4 µg/mL (≈ 1.29 µM)
- MIC (Streptococcus pneumoniae [13]): 8 µg/mL (≈ 25.8 µM)
- MIC (Streptococcus pneumoniae [14]): 4 µg/mL (≈ 12.9 µM)
- CC50 at 48 h [15]: 4.7 µg/mL (≈ 15.1 µM)
- CC50 at 48 h [16]: 40 µg/mL (≈ 129 µM)
- MIC [17]: 2 µg/mL (≈ 6.44 µM)
- CC50 at 48 h [2]: 33 µg/mL (≈ 106 µM)
- MIC (Escherichia coli): > 64 µg/mL
- MIC (Bacillus cereus): ≤ 1 µg/mL
- MIC (Streptococcus pneumoniae [18]): 4 µg/mL (≈ 12.9 µM)
- MIC (Staphylococcus aureus [19]): 2 µg/mL (≈ 6.44 µM)
- MIC (Klebsiella pneumoniae): > 64 µg/mL
- MIC (Streptococcus pneumoniae [20]): 8 µg/mL (≈ 25.8 µM)
- MIC (Staphylococcus aureus [21]): 0.25 µg/mL (≈ 0.805 µM)
- MIC (Streptococcus pyogenes [22]): 8 µg/mL (≈ 25.8 µM)
- MIC (Streptococcus pneumoniae [23]): 4 µg/mL (≈ 12.9 µM)
- MIC (Staphylococcus aureus [24]): 1 µg/mL (≈ 3.22 µM)
- MIC (Staphylococcus aureus [25]): ≤ 0.1 µg/mL
- MIC (Staphylococcus aureus [26]): 2 µg/mL (≈ 6.44 µM)
- MIC (Staphylococcus aureus [27]): 2 µg/mL (≈ 6.44 µM)
- MIC (Staphylococcus aureus [28]): 0.1 to 0.25 µg/mL (≈ 0.322 to 0.805 µM)
- MIC (Staphylococcus aureus [29]): 4 µg/mL (≈ 12.9 µM)
- MIC (Enterococcus faecalis [30]): 2 µg/mL (≈ 6.44 µM)
- MIC (Streptococcus pyogenes [31]): 8 µg/mL (≈ 25.8 µM)
- MIC (Pseudomonas aeruginosa): > 64 µg/mL
- MIC (Streptococcus pneumoniae [32]): 8 µg/mL (≈ 25.8 µM)
- MIC (Acinetobacter baumannii): 12 to 24 µg/mL (≈ 38.7 to 77.3 µM)
- MIC (Staphylococcus aureus [33]): 2 µg/mL (≈ 6.44 µM)
- MIC [34]: ≤ 0.5 µg/mL
- MIC (Staphylococcus aureus [35]): 4 µg/mL (≈ 12.9 µM)
- MIC (Staphylococcus aureus [36]): 2 µg/mL (≈ 6.44 µM)

Compound: CCCCCCC[C@@H]1CC(O)=C(C(=O)CCC)C(=O)O1
- MIC (Staphylococcus aureus [1]): 1 to 2 µg/mL (≈ 3.54 to 7.08 µM)
- MIC (Acinetobacter baumannii): > 64 µg/mL

Compound: NC[C@H]1O[C@H](O[C@H]2[C@H](O)[C@@H](O[C@H]3O[C@H](CO)[C@@H](O)[C@H](N)[C@H]3O)[C@H](N)C[C@@H]2N)[C@H](N)C[C@@H]1O [TOBRAMYCIN]
- MIC (Enterococcus faecalis [6]): > 256 µg/mL
- MIC (Enterococcus faecium): > 256 µg/mL

Compound: GENTAMICIN
- MIC (Enterococcus faecalis [6]): > 256 µg/mL
- MIC (Enterococcus faecium): > 256 µg/mL

Compound: CCCC(=O)C1=C(O)C[C@@H](CC)OC1=O
- MIC (Staphylococcus aureus [1]): > 50 µg/mL
- CC50 at 48 h [2]: > 100 µg/mL
- MIC (Acinetobacter baumannii): > 64 µg/mL

Compound: CCCCCCCCC[C@@H]1CC(O)=C(C(=O)CC)C(=O)O1
- MIC (Staphylococcus aureus [1]): 0.7 µg/mL (≈ 2.36 µM)
- CC50 at 48 h [2]: 50 µg/mL (≈ 169 µM)
- MIC (Acinetobacter baumannii): 32 to 48 µg/mL (≈ 108 to 162 µM)

Compound: CCCCCCCCCC[C@@H]1CC(O)=C(C(=O)CCC)C(=O)O1
- MIC (Staphylococcus aureus [1]): 0.6 to 0.8 µg/mL (≈ 1.85 to 2.47 µM)
- CC50 at 48 h [2]: 25 µg/mL (≈ 77.1 µM)
- MIC (Acinetobacter baumannii): 8 to 16 µg/mL (≈ 24.7 to 49.3 µM)

Compound: NC[C@H]1O[C@H](O[C@H]2[C@H](O)[C@@H](O[C@H]3O[C@H](CO)[C@@H](O)[C@H](N)[C@H]3O)[C@H](N)C[C@@H]2N)[C@H](O)[C@@H](O)[C@@H]1O [KANAMYCIN]
- MIC (Enterococcus faecalis [6]): > 256 µg/mL
- MIC (Enterococcus faecium): > 256 µg/mL

Compound: CCCCCCCCC[C@@H]1CC(O)=C(C(=O)CCCCC)C(=O)O1
- MIC (Staphylococcus aureus [1]): 0.6 to 0.8 µg/mL (≈ 1.77 to 2.36 µM)
- CC50 at 48 h [2]: 15 µg/mL (≈ 44.3 µM)
- MIC (Acinetobacter baumannii): 4 to 8 µg/mL (≈ 11.8 to 23.6 µM)

Compound: CCCCCCCCCCC[C@@H]1CC(O)=C(C(=O)CCC)C(=O)O1
- MIC (Staphylococcus aureus [1]): 0.1 to 0.2 µg/mL (≈ 0.295 to 0.591 µM)
- CC50 at 48 h [2]: 19 µg/mL (≈ 56.1 µM)
- MIC (Acinetobacter baumannii): < 4 µg/mL

Compound: CN[C@H](CC(C)C)C(=O)N[C@H]1C(=O)N[C@@H](CC(N)=O)C(=O)N[C@H]2C(=O)N[C@H]3C(=O)N[C@H](C(=O)N[C@H](C(=O)O)c4cc(O)cc(O)c4-c4cc3ccc4O)[C@H](O)c3ccc(c(Cl)c3)Oc3cc2cc(c3O[C@@H]2O[C@H](CO)[C@@H](O)[C@H](O)[C@H]2O[C@H]2C[C@](C)(N)[C@H](O)[C@H](C)O2)Oc2ccc(cc2Cl)[C@H]1O [VANCOMYCIN]
- MIC (Enterococcus faecalis [6]): > 256 µg/mL
- MIC (Enterococcus faecium): > 256 µg/mL

Compound: CCCCCCCC[C@@H]1CC(O)=C(C(=O)CCC)C(=O)O1
- MIC (Staphylococcus aureus [1]): 0.8 to 1.5 µg/mL (≈ 2.7 to 5.06 µM)
- CC50 at 48 h [2]: 30 µg/mL (≈ 101 µM)
- MIC (Acinetobacter baumannii): 24 to 32 µg/mL (≈ 81 to 108 µM)
